Assays:
nucleic acids = settings: cited from earlier work
[1] = system: mixture of RNA and DNA at 1:1 ratio; assay: Selectivity test on a 1:1 mixture of RNA and DNA; assay type: binding; settings: dye 100 nM, RNA:DNA 1:1 up to 200 ng/mL each in 1×TE, Ex/Em=620/660 nm, FIG. 3
Procedure: In another experiment, a series of RNA and DNA dilutions up to 200 ng/mL in 1×TE buffer is added to the wells of a 96-well microplate. A series of mixture of RNA and DNA at 1:1 ratio is prepared according to the following table, and is added to separate wells.
Compound 9 is added to each well at a final concentration of 100 nM. The fluorescence intensity is measured on a fluorescence plate reader with Ex/Em=620/660 nm.

rRNA, tRNA and mRNA = assay: Selectivity test on different source of RNA; assay type: binding; settings: dye 400 nM, RNA up to 1000 ng/mL in 1×TE, Ex/Em=620/660 nm, FIG. 4
Procedure: A series of rRNA, tRNA and mRNA dilutions up to 1000 ng/mL in 1×TE buffer is added to the wells of a 96-well microplate. Compound 9 is added to each well at a final concentration of 400 nM. The fluorescence intensity is measured on a fluorescence plate reader with Ex/Em=620/660 nm.

rRNA [2] = assay: Detection of nucleic acids on microarrays, rRNA spots; assay type: binding; settings: ~1 μM dye in 1×TE, 5 minutes, 633 nm laser excitation
Procedure: (§1) A microarray consisting of a dilution series of DNA marker and rRNA is printed on a slide using a microarray spotter. The slide is equilibrated in 1×SSC buffer to remove any excess printing buffer, and then soaked with compound 9 solution at ˜1 μM final concentration in 1×TE buffer for 5 minutes, followed by a 5 minute wash in 1×TE buffer to remove any excess compound. The slide is then imaged using a array scaner using 633 nm laser excitation.

mixture of RNA and DNA = assay: Selectivity test on a mixture of RNA and DNA (total 1000 ng/mL); assay type: binding; settings: dye 400 nM, RNA+DNA total 1000 ng/mL in 1×TE, Ex/Em=620/660 nm, FIG. 2
Procedure: (§2) A series of RNA and DNA dilutions up to 1000 ng/mL in 1×TE buffer is added to the wells of a 96-well microplate. A series of mixture of RNA and DNA is prepared according to the following table, and is added to separate wells.
(§3) Compound 9 is added to each well at a final concentration of 400 nM. The fluorescence intensity is measured on a fluorescence plate reader with Ex/Em=620/660 nm.

rRNA [3] = assay: Microplate fluorescence intensity with RNA dilutions; assay type: binding; settings: dye 400 nM, RNA up to 1000 ng/mL in 1×TE, Ex/Em=620/660 nm, FIG. 2
Procedure: as §2, §3

calf thymus DNA = assay: Microplate fluorescence intensity with DNA dilutions; assay type: binding; settings: dye 400 nM, DNA up to 1000 ng/mL in 1×TE, Ex/Em=620/660 nm, FIG. 2
Procedure: as §2, §3

rRNA and 1 kb DNA Ladder = assay: Detection of nucleic acids in electrophoretic gels (post-gel staining); assay type: binding; settings: 1% agarose gel, ~1 μM dye in 1×TE, ~30 min staining, 633 nm laser, 675 nm filter
Procedure: Agarose gels (1% agarose) are prepared according to a standard protocol. Serial two-fold dilutions of 1 kb DNA Ladder from Invitrogen and rRNA from Roche are prepared, and the resulting DNA and RNA samples are loaded onto an agarose gel. The DNA and RNA samples are electrophoretically separated in 1×TBE buffer using a standard protocol. A stock solution of compound 9 is diluted into ˜1 μM final concentration in 1×TE buffer. The agarose gels are incubated in the staining solutions for ˜30 min to stain the gels. The stained nucleic acid bands are recorded using Fuji FLA-3000 gel scanner, using 633 nm laser illumination, and a 675 nm filter.

[4] = system: E. coli rRNA versus calf thymus DNA; assay: Selectivity test on RNA vs dsDNA (emission spectra in TE buffer); assay type: binding; settings: 10 μg/mL calf thymus DNA or E. coli rRNA in 1×TE, 5 μL of 100 μM dye per mL, excitation 620 nm, FIG. 1
Procedure: A stock solution of compound 9 was prepared at 100 μM concentration in DMSO. Calf thymus DNA, and E. coli rRNA were prepared at 10 μg/mL concentration in 1×TE buffer, individually. To 1 mL of DNA solution and 1 mL of RNA solution was added with 5 μL of compound 9, individually. The emission spectrum associated with each of the solutions was scaned at excitation wavelength 620 nm.

DNA marker = assay: Detection of nucleic acids on microarrays, DNA spots; assay type: binding; settings: ~1 μM dye in 1×TE, 5 minutes, 633 nm laser excitation
Procedure: as §1

| SMILES | detection sensitivity on nucleic acids (nucleic acids) | selectivity on RNA in a mixture of RNA and DNA [1] | fluorescent signal when associated with rRNA, tRNA and mRNA (rRNA, tRNA and mRNA) | staining of rRNA spots on microarray (rRNA [2]) | fluorescence intensity of mixture of RNA and DNA compared with RNA alone (mixture of RNA and DNA) | fluorescence intensity response with RNA concentration (rRNA [3]) | fluorescence signal with DNA alone (calf thymus DNA) | fluorescence signal of RNA bands versus corresponding DNA bands in gel (rRNA and 1 kb DNA Ladder) | selectivity for RNA versus DNA (fluorescence emission spectra) [4] | staining of DNA spots on microarray (DNA marker) |
| --- | --- | --- | --- | --- | --- | --- | --- | --- | --- | --- |
| CN1C(=Cc2cc[n+](C)c3ccccc23)Sc2ccccc21 [Thiazole Orange, reference compound] | low detection sensitivity | – | – | – | – | – | – | – | – | – |
| CCCN1C=C/C(=C\c2sc3ccccc3[n+]2C)c2ccccc21 [SYBR Safe] | low sensitive | – | – | – | – | – | – | – | – | – |
| CCN(CC)Cc1ccc(C(=C\c2sc3ccc(S(=O)(=O)NCCCS(=O)(=O)[O-])cc3[n+]2C)/C=C2\C=CN(C)c3ccccc32)cc1 [Compound 9] | – | excellent selectivity | comparable fluorescent signal | stained | the same for the corresponding concentration of RNA | nice linear response | little to no signal | much brighter | good selectivity | undetectable |
